According to patent US11679123B2, “N-acylated hyaluronic acid for hyperuricemia and gouty arthritis” (Queen's University at Kingston, priority 2018, dated 2023):

Experiments:
[1] = tested on: stimulated human cultured macrophages; conditions: THP-1, BHA of reduced molecular weight; cited from earlier work
[2] = tested on: creatinine (Cr) and blood urea nitrogen (BUN); assay: Cr and urea nitrogen in serum and liver of hyperuricemic mice (renal function); assay type: in vivo, Balb/C mice; conditions: for lowering of Cr in the serum / lowering of urea nitrogen in the liver: BHA, P<0.05
Method: (§1) Due to the presence of uricase in mice, a hyperuricemic mouse model was established by using uricase inhibitor and large amounts of purine. Mice were randomly divided into five groups (n=10), including the control group (NC), model group (MC), 20 mg/kg of AL (Shimao Tianjie Pharmaceutical Co. Ltd, Jiangsu, China) group, 10 μg BHA group (10BHA) and 50 μg BHA group (50BHA). Oral administration of AL and intraperitoneal injection of BHA were administered according to the required dose, and all mice were gavage fed 20 g/kg yeast extract powder 12 h prior to the administration of AL and BHA except for NC mice for 8 days. From the 6th to 8th day, 1-h prior to AL and BHA administration, 300 mg/kg of OXO (Sigma, USA) was intraperitoneally injected to all of the mice except those in the control group. At 1 h after the final drug administration, blood was sampled from caudal veins of the mice, serum was separated and their livers were quickly collected (FIG. 3A, E). All samples were stored at −80° C. until assay measurements were performed.
(§2) The levels of reactive oxygen species (ROS, 43355), malondialdehyde (MDA, 43124) glutathione peroxidase (GSH-Px, 43390), superoxide dismutase (SOD, 43125), catalase (CAT, 43356), creatinine (Cr, 43353) and blood urea nitrogen (BUN, 43352) in the serum and livers of mice were determined using ELISA Kits (Yuanye Bio-Technology Co. Ltd, Shanghai, China) according to the manufacturer's instructions.

[3] = tested on: rats with MSU-induced gouty arthritis; assay: Dose screening on MSU crystals-induced acute gout in rats: ankle swelling ratio; assay type: in vivo, Wistar rats; conditions: P<0.05
Method: 48 male Wistar rats (8 weeks: 180-200 g), purchased from Yisi Experimental Animal Technology Company Ltd, Jilin, China (SCXK (Ji)-2016-0003), were housed in plastic cages and maintained on a 12-h light/12-h dark cycle (lights on 7:00-19:00 h) under standard laboratory conditions of 55% relative humidity and 23° C.±1° C. They were given standard chow and tap water ad libitum. All experimental procedures were approved by the Animal Ethics Committee of Jilin University (Reference NO. 201605).
An experimental model of MSU-induced gouty arthritis was used in order to evaluate the anti-inflammatory activities of BHA similar as previous studies with some modifications. Rats were randomly divided into eight groups (n=6), including control group (NC), model group (MC), 0.3 mg/kg colchicine group (COL), 5 μg BHA group (5BHA), 10 μg BHA group (10BHA), 25 μg BHA group (25BHA), 50 μg BHA group (50BHA), 100 μg BHA group (100BHA). MSU crystals were suspended in 0.9% sterile saline (30 mg/mL) prior to use. Rats in the colchicine group were orally administered colchicine (0.3 mg/kg) for 8 days. At day 6, MSU solution (100 μL of 30 mg/mL) was intra-articular injected at the right ankles of all rats except the NC group m which were injected with saline solution. 5BHA, 10BHA, 25BHA, 50BHA and 100BHA groups received intra-articular injections of 5, 10, 25, 50, or 100 μg BHA along with MSU solution (100 μL of 30 mg/mL MSU solution contains 5, 10, 25, 50 or 100 μg BHA) were administered according to the stated BHA doses.
The right ankle circumference of all rats at 0, 4, 12, 24 and 48 h after MSU injection was measured. The swelling ratio (%) was used for evaluating the gouty arthritis and calculated according to the change of the circumference following the formula: Swelling ratio (%)=(Ct−C0)/C0. Wherein, Ct represented the circumference at t hour and C0 represented the circumference at 0 hour.

[4] = tested on: inflammatory cell infiltration in the synovium; assay: Histopathological assessment of ankle joint synovium (H&E) in MSU crystal-injected rats; assay type: in vivo, Wistar rats
Method: In one study, a histopathological assessment was conducted of synovium in ankle joints of rats after H&E staining. The right ankles of […] were excised and fixed in 4% paraformaldehyde, and subsequently decalcified using 10% ethylenediaminetetraacetic acid. They were then dehydrated via processing in alcohol/xylene mixtures with different proportions and concentrations. The histological sections were stained with hematoxylin and eosin. The histopathological changes of the joint synovium were assessed for the degree of inflammatory cell infiltrate, by an experienced histopathologist. Microscopy at magnifications of 40×, 100×, 200× and 400× were investigated for typical areas for each of the five groups.
The right ankles of rats were collected and fixed in 4% paraformaldehyde, and subsequently decalcified using 10% ethylenediaminetetraacetic acid. They were then dehydrated by processing in alcohol/xylene mixtures with different proportions and concentrations. The histological sections were later stained with hematoxylin and eosin for observation under an optical microscope (200×). The histopathological changes were analyzed with regard to deformaties of the joint synovium and infiltration by inflammatory cells into the ankle.

[5] = tested on: factors related to oxidative stress; assay: Factors related to oxidative stress in serum and liver of hyperuricemia mice (ELISA); assay type: in vivo, Balb/C mice; conditions: for Liver CAT / Liver GSH-PX / Liver MDA / Liver ROS / Liver SOD / Serum CAT / Serum GSH-PX / Serum MDA / Serum ROS / Serum SOD: hyperuricemia mice, mean ± S.D., n=10
Method: as §1, §2

[6] = 10 μg BHA intraperitoneal (10BHA)
[7] = 50 μg BHA intraperitoneal (50BHA)

For N-butyrylated HA [BHA], the “production of pro-inflammatory cytokines (IL-1, IL-6, IL-8, TNF-α)” value [1] is given as “decreased production of pro-inflammatory cytokines significantly”, the “lowering of Cr in the liver” value ([2]; 10 μg BHA, P<0.01) is given as 8.14% and the “lowering of Cr in the serum” value ([2]; second value listed (10 μg)) is given as 8.21%. For the same substance, the “lowering of urea nitrogen in the liver” value ([2]; second value listed (10 μg)) was 11.65%, the “lowering of Cr in the serum” value ([2]; third value listed (50 μg)) was 12.02% and the “lowering of urea nitrogen in the liver” value ([2]; third value listed (50 μg)) was 12.81%. For the same substance, the “swelling of the ankle compared to MSU treated group” value ([3]; n=6, BHA 5-100 μg intra-articular, at 4 h and 12 h) was “significantly suppressed swelling”, the “swelling of the ankle compared to MSU treated group” value ([3]; n=6, BHA at doses of 10 μg, 50 μg and 100 μg, at 48 h) was “significant suppressing of swelling effect” and the “pathological changes (inflammatory cell infiltration) in synovium” value ([4]; 10 μg of BHA, MSU crystal-injected rats, H&E) was “partially prevented the pathological changes”. The “attenuation of inflammatory cell infiltration in synovium” value ([4]; higher dose BHA (50BHA, 50 μg)) was “not as effective as the 10BHA dose”, the “decrease of ROS levels in the liver” value ([5]; 10 μg BHA, P<0.01) was 8.04% and the “decrease of ROS levels in the serum” value ([5]; 10 μg BHA, P<0.01) was 14.87%. The “improvement of liver SOD” value ([5]; 10 μg BHA, P<0.05) was 12.77%, the “decrease of ROS levels in the liver” value ([5]; 50 μg BHA, P<0.05) was 9.59% and the “decrease of ROS levels in the serum” value ([5]; 50 μg BHA, P<0.05) was 14.63%. The “improvement of liver SOD” value ([5]; 50 μg BHA, P<0.05) was 13.69%, the “Liver CAT” value [5, 6] was 13.1 ± 1.4 U/mg and the “Liver GSH-PX” value [5, 6] was 78.8 ± 8^ U/mg. For the same substance, the “Liver MDA” value [5, 6] was 3.4 ± 0.2 nmol/mg, the “Liver ROS” value [5, 6] was 70.8 ± 3.7 U/mg and the “Liver SOD” value [5, 6] was 56.8 ± 5.8 U/mg. For the same substance, the “Serum CAT” value [5, 6] was 43.3 ± 4.6 U/mL, the “Serum GSH-PX” value [5, 6] was 246.8 ± 10.2 U/mL and the “Serum MDA” value [5, 6] was 10.4 ± 0.5 nmol/mL. For the same substance, the “Serum ROS” value [5, 6] was 226.6 ± 17.9 U/mL, the “Serum SOD” value [5, 6] was 166.6 ± 11.8 U/mL and the “Liver CAT” value [5, 7] was 14.1 ± 1.5 U/mg. For the same substance, the “Liver GSH-PX” value [5, 7] was 77.9 ± 7.3 U/mg, the “Liver MDA” value [5, 7] was 3.5 ± 0.2 nmol/mg and the “Liver ROS” value [5, 7] was 69.6 ± 7.1 U/mg. The “Liver SOD” value [5, 7] was 57.2 ± 4.4 U/mg, the “Serum CAT” value [5, 7] was 41.5 ± 6^ U/mL and the “Serum GSH-PX” value [5, 7] was 231.4 ± 13.3 U/mL. For the same substance, the “Serum MDA” value [5, 7] was 10.5 ± 0.3 nmol/mL, the “Serum ROS” value [5, 7] was 227.2 ± 17.9 U/mL and the “Serum SOD” value [5, 7] was 161.2 ± 8 U/mL.
